Measured values as given in PMC7506137, “Selective Phosphodiesterase 1 Inhibitor BTTQ Reduces Blood Pressure in Spontaneously Hypertensive and Dahl Salt Sensitive Rats: Role of Peripheral Vasodilation” (Frontiers in Physiology, 2020).
“And” between values parts separate entries of the source, which are not always exact repeats. Identical values can stand only once. Like-named read-outs stand apart in the source and are kept apart here.

Experiment: Plasma exposure (dried blood spot) after single oral dose
Assay type: in vivo
Details: rat; for concentration at 5 h / concentration at 6 h / concentration at 24 h: Sprague Dawley, po, 3 mg/kg, oral 3 mg/kg; for concentration at 24 h / Unbound Concentration, individual animals / Concentration, individual animals: 24 h
Procedure: Male Sprague Dawley rats at 6 to 7 weeks were dosed orally by p.o. gavage with different doses of BTTQ formulated in 1% hydroxyethlycellulose (Dow Corning, Midland, MI, United States) (w/v), 0.25% polysorbate 80 (Sigma-Aldrich, St. Louis, MO, United States) (v/v), and 0.05% antifoam (v/v; Dow Corning, Midland, MI, United States) in purified water. Following dosing, ear temperature was measured by using a k-type thermocouple probe digital thermometer (Cole Parmer) every hour for 6 h and then at 24 h. Blood samples for plasma exposure measurement were obtained at the same time. Blood was collected via a tail snip directly into a 20-μL EDTA-coated capillary and immediately spotted onto a Whatman DMPK-C DBS card (GE Healthcare Bio-Sciences). Tail snips were performed by removing approximately 1 mm of the tail by using a scalpel. Blood flow was initiated by gentle squeezing of the tail. No analgesia or anesthesia was used during blood collections. A single sample and spot were collected per time point. The DBS cards were allowed to dry for approximately 2 h at room temperature, after which the cards were placed in a zip-top bag, stored, and shipped at ambient temperature.

For O=c1c2nnc(C3(C4CC4)CC3)n2c2c(n1CC1CC1)CCCC2 [BTTQ, 1-[1,1′-bi(cyclopropyl)-1-yl]-5-(cyclopropylmethyl)-6,7,8,9-tetrahydro[1,2,4]triazolo[4,3-A]quinoxaline-4(5H)-one], the concentration at 5 h (male, whole blood (dried blood spot), 5 h, dried blood spot, read-out: Concentration, Mean) was 2170 nM, the concentration at 5 h (male, whole blood (dried blood spot), 5 h, dried blood spot, read-out: Concentration, individual animals) was 2680 nM and the concentration at 6 h (male, whole blood (dried blood spot), 6 h, FU 0.053, read-out: Unbound Concentration, Mean) was 93.5 nM. The concentration at 6 h (male, whole blood (dried blood spot), 6 h, FU 0.053, read-out: Unbound Concentration, individual animals) was 98.1 nM, the concentration at 6 h (male, whole blood (dried blood spot), 6 h, dried blood spot, read-out: Concentration, Mean) was 1760 nM and the concentration at 6 h (male, whole blood (dried blood spot), 6 h, dried blood spot, read-out: Concentration, individual animals) was 1850 nM. For the same compound, the concentration at 24 h (male, whole blood (dried blood spot), FU 0.053, read-out: Unbound Concentration, Mean) was 5 nM, the concentration at 24 h (male, whole blood (dried blood spot), dried blood spot, read-out: Concentration, Mean) was 94.2 nM and the half-life (male, whole blood (dried blood spot), after oral administration, Sprague Dawley rats) was roughly 4 h. For the same compound, the concentration at 4 h (oral 0.03 mg/kg, 5 h, FU 0.053, 0.03 mg/kg, read-out: Unbound Concentration, individual animals) was 1.35 nM and 1.39 nM (2×) and 1.51 nM, the concentration at 4 h (oral 0.03 mg/kg, 5 h, dried blood spot, 0.03 mg/kg, read-out: Concentration, individual animals) was 25.4 nM and 26.3 nM and 28.4 nM and 26.2 nM and the concentration at 4 h (oral 0.03 mg/kg, 6 h, FU 0.053, 0.03 mg/kg, read-out: Unbound Concentration, individual animals) was 1.93 nM and 0.917 nM and 0.906 nM and 0.938 nM and 1.13 nM. The concentration at 4 h (oral 0.03 mg/kg, 6 h, dried blood spot, 0.03 mg/kg, read-out: Concentration, individual animals) was 36.4 nM and 17.3 nM and 17.1 nM and 17.7 nM and 21.4 nM, the “Unbound Concentration, individual animals” value (shortened to “Unbound Concentration”) (oral 0.03 mg/kg, FU 0.053) was “BQL” and the “Concentration, individual animals” value (oral 0.03 mg/kg, dried blood spot) was “BQL”. For the same compound, the concentration at 4 h (oral 0.1 mg/kg, 1 h, FU 0.053, 0.1 mg/kg, read-out: Unbound Concentration, individual animals) was 12.1 nM and 9.12 nM and 9.54 nM and 9.28 nM, the concentration at 4 h (oral 0.1 mg/kg, 1 h, dried blood spot, 0.1 mg/kg, read-out: Concentration, individual animals) was 229 nM and 172 nM and 180 nM and 175 nM and the concentration at 4 h (oral 0.1 mg/kg, 2 h, FU 0.053, 0.1 mg/kg, read-out: Unbound Concentration, individual animals) was 10.2 nM and 10.1 nM and 8.9 nM and 9.22 nM. The concentration at 4 h (oral 0.1 mg/kg, 2 h, dried blood spot, 0.1 mg/kg, read-out: Concentration, individual animals) was 193 nM and 190 nM and 168 nM and 174 nM, the concentration at 4 h (oral 0.1 mg/kg, 3 h, FU 0.053, 0.1 mg/kg, read-out: Unbound Concentration, individual animals) was 8.96 nM and 9.91 nM and 7.63 nM and 9.49 nM and the concentration at 4 h (oral 0.1 mg/kg, 3 h, dried blood spot, 0.1 mg/kg, read-out: Concentration, individual animals) was 169 nM and 187 nM and 144 nM and 179 nM. The concentration at 4 h (oral 0.1 mg/kg, 4 h, FU 0.053, 0.1 mg/kg, read-out: Unbound Concentration, individual animals) was 7.05 nM and 7.21 nM and 4.67 nM and 7.74 nM, the concentration at 4 h (oral 0.1 mg/kg, 4 h, dried blood spot, 0.1 mg/kg, read-out: Concentration, individual animals) was 133 nM and 136 nM and 88.1 nM and 146 nM and the concentration at 4 h (oral 0.1 mg/kg, 5 h, FU 0.053, 0.1 mg/kg, read-out: Unbound Concentration, individual animals) was 5.35 nM and 4.7 nM and 3.91 nM and 5.72 nM. For the same compound, the concentration at 4 h (oral 0.1 mg/kg, 5 h, dried blood spot, 0.1 mg/kg, read-out: Concentration, individual animals) was 101 nM and 88.7 nM and 73.7 nM and 108 nM, the concentration at 4 h (oral 0.1 mg/kg, 6 h, FU 0.053, 0.1 mg/kg, read-out: Unbound Concentration, individual animals) was 5.83 nM and 4.21 nM and 3.48 nM and 4.92 nM and the concentration at 4 h (oral 0.1 mg/kg, 6 h, dried blood spot, 0.1 mg/kg, read-out: Concentration, individual animals) was 110 nM and 79.5 nM and 65.7 nM and 92.8 nM. For the same compound, the “Unbound Concentration” value (oral 0.1 mg/kg, FU 0.053, 0.1 mg/kg) was “BQL”, the “Concentration, individual animals” value (oral 0.1 mg/kg, dried blood spot, 0.1 mg/kg) was “BQL” and the concentration at 4 h (oral 0.3 mg/kg, 1 h, FU 0.053, 0.3 mg/kg, read-out: Unbound Concentration, individual animals) was 19.2 nM and 31.4 nM and 33.8 nM and 30 nM. For the same compound, the concentration at 4 h (oral 0.3 mg/kg, 1 h, dried blood spot, 0.3 mg/kg, read-out: Concentration, individual animals) was 362 nM and 593 nM and 638 nM and 566 nM, the concentration at 4 h (oral 0.3 mg/kg, 2 h, FU 0.053, 0.3 mg/kg, read-out: Unbound Concentration, individual animals) was 25.4 nM and 27.8 nM and 21 nM and 25 nM and the concentration at 4 h (oral 0.3 mg/kg, 2 h, dried blood spot, 0.3 mg/kg, read-out: Concentration, individual animals) was 479 nM and 525 nM and 397 nM and 472 nM. The concentration at 4 h (oral 0.3 mg/kg, 3 h, FU 0.053, 0.3 mg/kg, read-out: Unbound Concentration, individual animals) was 14.8 nM and 17.4 nM and 17.1 nM and 19.2 nM, the concentration at 4 h (oral 0.3 mg/kg, 3 h, dried blood spot, 0.3 mg/kg, read-out: Concentration, individual animals) was 280 nM and 328 nM and 323 nM and 363 nM and the concentration at 4 h (oral 0.3 mg/kg, 4 h, FU 0.053, 0.3 mg/kg, read-out: Unbound Concentration, individual animals) was 12.1 nM (2×) and 11.3 nM and 11.1 nM. For the same compound, the concentration at 4 h (oral 0.3 mg/kg, 4 h, dried blood spot, 0.3 mg/kg, read-out: Concentration, individual animals) was 229 nM (2×) and 213 nM and 210 nM, the concentration at 4 h (oral 0.3 mg/kg, 5 h, FU 0.053, 0.3 mg/kg, read-out: Unbound Concentration, individual animals) was 8 nM and the “Unbound Concentration” value (oral 0.3 mg/kg, FU 0.053) was “BQL”. The “Concentration, individual animals” value (oral 0.3 mg/kg, dried blood spot) was “BQL”.
